Test system: L. amazonesis
Assay: Effects upon leishmaniasis-infected mice (shrinkage of skin foci)
Format: in vivo, BALB/c mice
Conditions: 30 mg/kg twice a week for 8 weeks; for Average focus shrinkage degree: before administration = 100
Excerpt: L. amazonesis was inoculated to tail root portions of BALB/c mice to prepare L. amazonesis-infected mice, and the mice were used 6 week after the infection. These mice were divided into four groups as mentioned below, infected foci (tail root portions) were photographed with lapse of time, and the effects upon them were examined in terms of [by means of] shrinkage degrees of the skin foci. The shrinkage degree of the skin focus was found by measuring a major axis of ulcer or node. The magnitude before administration was taken as 100 and the magnitude 8 weeks after administration was calculated according to the following calculation formula. Group A (Control group) Only a solvent (55% ethanol-4.5% glucose liquid) was injected topically into a focus twice a week for 8 weeks. Group B (Control group) Only a solvent (55% ethanol-4.5% glucose liquid) was injected intraperitoneally twice a week for 8 weeks. Group C (Topically injected group) A solution in which the sodium salt of the compound in the present invention represented by the formula (1) was dissolved in the solvent was injected topically into a focus twice a week for 8weeks at a rate of 30 mg/kg. Group D (intraperitoneally injected group) A solution in which the sodium salt of the compound in the present invention represented by the formula (1) was dissolved in the solvent was injected intraperitoneally twice a week for 8 weeks at a rate of 30 mg/kg. [formula]

| Compound | Average focus shrinkage degree (Group C: injected topically into focus, magnitude (major axis of ulcer or node) 8 weeks after administration, n = 7, solvent control Group A 220.5) | Skin focus completely cured (number of mice) (Group C: topical injection, n = 7) | Average focus shrinkage degree (Group D: injected intraperitoneally, magnitude 8 weeks after administration, n = 6, solvent control Group B 289.3) | Effect on focal infection of leishmaniasis-infected mice (in words) (conclusion from Table 1, topical or intraperitoneal) |
| --- | --- | --- | --- | --- |
| 2-deoxy-2-[(3S)-(9-phenylnonanoyloxy)tetradecanoyl]amino-3-O-(9-phenylnonanoyl)-4-O-sulfo-α-D-glucopyranose | 138.9 (n = 7) | completely cured with respect to three mice | 178.5 (n = 6) | – |
| CCCCCCCCCCC[C@@H](CC(=O)N[C@@H]1[C@@H](OC(=O)CCCCCCCCc2ccccc2)[C@H](OS(=O)(=O)[O-])[C@@H](CO)O[C@@H]1O)OC(=O)CCCCCCCCc1ccccc1.[Na+] [the compound in the present invention, 2-deoxy-2-[(3S)-(9-phenylnonanoyloxy)tetradecanoyl]-amino-3-O-(9-phenylnonanoyl)-4-O-sulfo-α-D-glucopyranose] | – | – | – | effectively shrunk the focal infection |
